Patent US12421206B2, “Aryl-n-aryl derivatives for treating a RNA virus infection” (ABIVAX, priority 2018, dated 2025)

system: RSV A2; test: RSV inhibition (cytopathic effect inhibition) using Viral ToxGlo assay in HEp-2 cells; assay type: cell-based; conditions: human respiratory syncytial virus, RSV A2, MOI 0.5, HEp-2 cells, 72 h p.i.
Experimental: Protocol for Screening Antiviral Compounds for RSV Inhibition and Cytotoxicity Using Viral ToxGlo Assay
HEp-2 cells were maintained in Eagle's minimum essential medium (EMEM) with Earle's BSS adjusted to contain 2 mM L-glutamine, 10% fetal bovine serum, 100 U/ml penicillin and 100 μg/ml streptomycin. For the purposes of the screening assay they were grown to 90% confluency, trypsinized and recovered. The trypsin was neutralised with cell culture media and cells were centrifuged at 150×g for 5 minutes before discarding the supernatant and resuspending cell pellet in assay media (EMEM with Earle's BSS adjusted to contain 2 mM L-glutamine, 2% fetal bovine serum and 100 U/ml penicillin and 100 μg/ml streptomycin). The cells were seeded into white clear-bottomed cell culture plates at a density of 1.5×10^4 cells/well in 50 μl and 4×10^3 cells/well in 25 μl for 96 well plates and 384 well plates respectively. For the media/background control column assay media only was added. Cell plates were placed in a humid chamber and incubated overnight at 37° C./5% CO2. After overnight incubation cells were checked for confluency and healthy appearance.
Test articles were made up at 10× test concentration in a maximum DMSO concentration of 10% (final assay concentration maximal 1% DMSO) and added to the cell plates in volumes of 10 μl for 96 well plates and 5 μl for 384 well plates. For cell control and virus control wells the test article solvent only was added. Virus or assay media for cytotoxicity test wells and media/cell control wells was added immediately after test articles at an MOI of 0.5, 40 or 20 μl for 96 and 384 well plates respectively. Virus suspension was prepared by thawing RSV A2 frozen stocks and diluting to the required concentration of plaque forming units in assay media on ice.
Cell plates were further incubated inside a humid chamber for 72 h p.i at 37° C./5% CO2. After the incubation period cells were observed under the microscope to check for characteristic cytopathic effect in virus control wells and healthy cells in the cell control wells. After plates were adjusted to room temperature 20/40 μl Viral ToxGlo (Promega) was added to each well of the 384/96 well cell plates. Plates were incubated at room temperature, protected from light on a plate rocker for 20 minutes before measuring the luminescence on a spectrophotometer (Biotek Synergy HTX).
RSV inhibition was calculated as percentage of cytopathic effect inhibition relative to the virus control and cytotoxicity as percentage of cell survival relative to cell control wells. This allowed EC50 values to be calculated for each test article where a virus inhibition or cytotoxic dose response was identified.

Row | Structure (SMILES) | EC50
1 | CN(c1cccc(C(=O)NCCC2CCCCC2)c1)c1ccc(OCc2ccccn2)cc1C1CC1 [Compound 111, N-(2-cyclohexylethyl)-3-({2-cyclopropyl-4-[(pyridin-2-yl)methoxy]phenyl}(methyl)amino)benzamide] | 62 nM
2 | CC(C)CCc1cn(-c2cccc(Nc3ccc(OCc4ccccn4)cc3C3CC3)c2)nn1 [Compound 112, 2-cyclopropyl-N-{3-[4-(3-methylbutyl)-1H-1,2,3-triazol-1-yl]phenyl}-4-[(pyridin-2-yl)methoxy]aniline] | 67 nM
3 | O=C(NCC1CCCC1)c1ccccc1Nc1ccc(OCc2ccccn2)cc1C1CC1 [Compound 113, N-(cyclopentylmethyl)-2-({2-cyclopropyl-4-[(pyridin-2-yl)methoxy]phenyl}amino)benzamide] | 69 nM
4 | c1ccc(COc2ccc(Nc3cccc(OCCCC4CCCCC4)c3)c(N3CCOCC3)c2)cc1 [Compound 114, 4-(benzyloxy)-N-[3-(3-cyclohexylpropoxy)phenyl]-2-(morpholin-4-yl)aniline] | 71 nM
5 | O=C(NCCC1CCCCC1)c1ccccc1Nc1ccc(OCc2ccccc2)cc1C1CC1 [Compound 115, 2-{[4-(benzyloxy)-2-cyclopropylphenyl]amino}-N-(2-cyclohexylethyl)benzamide] | 83 nM
6 | O=C(CCC1CCCCC1)Nc1cc(Nc2ccc(OCc3ccccc3)cc2C(F)(F)F)ccc1F [Compound 116, N-(5-{[4-(benzyloxy)-2-(trifluoromethyl)phenyl]amino}-2-fluorophenyl)-3-cyclohexylpropanamide] | 93 nM
7 | O=C(NCCC1CCCCC1)c1cc(Nc2ccc(OCc3ccccn3)cc2C2CC2)ccn1 [Compound 117, N-(2-cyclohexylethyl)-4-({2-cyclopropyl-4-[(pyridin-2-yl)methoxy]phenyl}amino)pyridine-2-carboxamide] | 98 nM
8 | O=C(NCCC(F)(F)F)c1ccccc1Nc1ccc(OCc2ccccn2)cc1C1CC1 [Compound 120, 2-({2-cyclopropyl-4-[(pyridin-2-yl)methoxy]phenyl}amino)-N-(3,3,3-trifluoropropyl)benzamide] | 110 nM
9 | O=S(=O)(CCCC1CCCCC1)c1ccccc1Nc1ccc(OCc2ccccc2)cc1C1CC1 [Compound 122, 4-(benzyloxy)-N-[2-(3-cyclohexylpropanesulfonyl)phenyl]-2-cyclopropylaniline] | 116 nM
10 | CC(C)CCNC(=O)c1ccccc1Nc1ccc(OCc2ccccn2)cc1C1CC1 [Compound 123, 2-({2-cyclopropyl-4-[(pyridin-2-yl)methoxy]phenyl}amino)-N-(3-methylbutyl)benzamide] | 120 nM
11 | O=S(=O)(NCCC1CCCCC1)c1cccc(Nc2ccc(OCc3ccccc3)cc2C(F)(F)F)c1 [Compound 124, 3-{[4-(benzyloxy)-2-(trifluoromethyl)phenyl]amino}-N-(2-cyclohexylethyl)benzene-1-sulfonamide] | 126 nM
12 | O=C(CCC1CCCCC1)Nc1cc(Nc2ccc(OCc3ccc(F)cc3)cc2C(F)(F)F)ccc1F [Compound 125, 3-cyclohexyl-N-[2-fluoro-5-({4-[(4-fluorophenyl)methoxy]-2-(trifluoromethyl)phenyl}amino)phenyl]propanamide] | 130 nM
13 | CC(C)CCc1nc(-c2cccc(Nc3ccc(OCc4ccccn4)cc3C3CC3)c2)no1 [Compound 127, 2-cyclopropyl-N-{3-[5-(3-methylbutyl)-1,2,4-oxadiazol-3-yl]phenyl}-4-[(pyridin-2-yl)methoxy]aniline] | 148 nM
14 | CC(C)NC(=O)c1c(C#N)cccc1Nc1ccc(OCc2ccccc2)cc1C1CC1 [Compound 128, 2-{[4-(benzyloxy)-2-cyclopropylphenyl]amino}-6-cyano-N-(propan-2-yl)benzamide] | 156 nM
15 | c1ccc(COc2ccc(Nc3cccc(-c4noc(CCC5CCCCC5)n4)c3)c(C3CC3)c2)nc1 [Compound 129, N-{3-[5-(2-cyclohexylethyl)-1,2,4-oxadiazol-3-yl]phenyl}-2-cyclopropyl-4-[(pyridin-2-yl)methoxy]aniline] | 175 nM
16 | c1ccc(COc2ccc(Nc3cccc(-c4nnc(CCC5CCCCC5)o4)c3)c(C3CC3)c2)nc1 [Compound 130, N-{3-[5-(2-cyclohexylethyl)-1,3,4-oxadiazol-2-yl]phenyl}-2-cyclopropyl-4-[(pyridin-2-yl)methoxy]aniline] | 198 nM
17 | c1ccc(COc2ccc(Nc3cccc(OCCCC4CCCCC4)c3)c(N3CCC3)c2)cc1 [Compound 131, 2-(azetidin-1-yl)-4-(benzyloxy)-N-[3-(3-cyclohexylpropoxy)phenyl]aniline] | 204 nM
18 | O=P(O)(O)Oc1cccc(Nc2ccc(OCc3ccccn3)cc2C2CC2)c1 [Compound 133, [3-({2-cyclopropyl-4-[(pyridin-2-yl)methoxy]phenyl}amino)phenoxy]phosphonic acid] | 230 nM
19 | CC(C)(C)OC(=O)N1CCN(C(=O)c2cccc(Nc3ccc(OCc4ccccn4)cc3C3CC3)c2)CC1 [Compound 134, tert-butyl 4-[3-({2-cyclopropyl-4-[(pyridin-2-yl)methoxy]phenyl}amino)benzoyl]piperazine-1-carboxylate] | 281 nM
20 | O=C(O)C(NCCC1CCCCC1)c1cccc(Nc2ccc(OCc3ccccc3)cc2C2CC2)c1 (stereo not shown) [Compound 135, 2-(3-{[4-(benzyloxy)-2-cyclopropylphenyl]amino}phenyl)-2-[(2-cyclohexylethyl)amino]aceticacid] | 292 nM
21 | N#CC1(NC(=O)c2ccccc2Nc2ccc(OCc3ccccn3)cc2C2CC2)CC1 [Compound 136, N-(1-cyanocyclopropyl)-2-({2-cyclopropyl-4-[(pyridin-2-yl)methoxy]phenyl}amino)benzamide] | 295 nM
22 | c1ccc(COc2ccc(Nc3cccc(OC4CCC4)c3)c(C3CC3)c2)nc1 [Compound 137, N-(3-cyclobutoxyphenyl)-2-cyclopropyl-4-[(pyridin-2-yl)methoxy]aniline] | 300 nM
23 | COC(=O)C(NCCC1CCCCC1)c1cccc(Nc2ccc(OCc3ccccc3)cc2C2CC2)c1 (stereo not shown) [Compound 138, methyl 2-(3-{[4-(benzyloxy)-2-cyclopropylphenyl]amino}phenyl)-2-[(2-cyclohexylethyl)amino]acetate] | 312 nM
24 | Cc1cc(OCc2ccccc2)ccc1Nc1ccccc1C(=O)NCCC1CCCCC1 [Compound 139, 2-{[4-(benzyloxy)-2-methylphenyl]amino}-N-(2-cyclohexylethyl)benzamide] | 329 nM
25 | C[Si](C)(C)Oc1cccc(Nc2ccc(OCc3ccccn3)cc2C2CC2)c1 [Compound 141, 2-cyclopropyl-4-[(pyridin-2-yl)methoxy]-N-{3-[(trimethylsilyl)oxy]phenyl}aniline] | 352 nM
26 | O=S(=O)(CCCC1CCCCC1)c1cccc(Nc2ccc(OCc3ccccc3)cc2C2CC2)c1 [Compound 142, 4-(benzyloxy)-N-[3-(3-cyclohexylpropanesulfonyl)phenyl]-2-cyclopropylaniline] | 370 nM
27 | CC(C)Cn1nnc(-c2cccc(Nc3ccc(OCc4ccccn4)cc3C3CC3)c2)n1 [Compound 147, 2-cyclopropyl-N-{3-[2-(2-methylpropyl)-2H-1,2,3,4-tetrazol-5-yl]phenyl}-4-[(pyridin-2-yl)methoxy]aniline] | 414 nM
28 | Cc1cc(OCc2cccnn2)ccc1Nc1cccc(OCCCC2CCCCC2)c1 [Compound 148, N-[3-(3-cyclohexylpropoxy)phenyl]-2-methyl-4-[(pyridazin-3-yl)methoxy]aniline] | 532 nM
